Legend:
[1] = test system: Arabidopsis seedlings (primary root growth); test: Root growth inhibition assay; type: in vivo, Arabidopsis thaliana; settings: for root growth sensitivity of PIC30-OX lines: all four PIC30-OX lines; for primary root growth sensitivity of pic30 mutants: pic30-1, pic30-2 and pic30-3, incremental concentrations; for inhibition at 0.1 µM: 100 nM picloram; for primary root growth inhibition: media containing 10 pM picloram
Procedure: For root growth inhibition assays, 4-5 day old seedlings were transferred to control media and media containing indicated concentrations of different auxins. Primary root lengths were measured after 4 days of incubation, and percentage root growth inhibition was calculated.

[2] = test system: DR5::GFP auxin sensor; test: Auxin induced DR5::GFP expression; type: in vivo, Arabidopsis thaliana; settings: pic30-3 crossed with DR5::GFP; 5 day-old seedlings; 20 hours incubation
Procedure: To test auxin induced DR5::GFP expression, 5 day-old seedlings were transferred to control media and media containing indicated concentrations of different auxins. Plates were incubated for 20 hours at 21° C. under continuous light. Confocal images were acquired after the incubation period.
Confocal images were acquired using either 20× water immersion or 60× oil immersion lenses with Fluoview™ FV1000 laser scanning confocal microscope (Olympus). While making a quantitative comparison between one or more confocal images, similar laser intensity and transmittance light were used.

[3] = test system: Arabidopsis apical root sections (PIC30 transporter); test: In planta radioactive transport assay; set-up: species or system Arabidopsis thaliana
Procedure: In planta transport assays were performed according to a protocol described elsewhere (Ito and Gray, Plant Physiology 142, 63-74, 2006) with few modifications. 15 mm root sections (at root tip) from 9 day-old seedlings were excised and incubated in transport assay buffer (TAB, 20 mM MES-KOH, pH 5.6, 10 mM sucrose and 0.5 mM CaCl2) for 30 minutes. Root sections were then transferred to the TAB containing 1.5 nM of ^14C picloram and 10 pM of unlabeled picloram or 7.9 nM of ^3H IAA and incubated for 1-6 hours at room temperature. Following thorough rinsing with cold TAB buffer, root sections were transferred to scintillation vials containing 1 ml of scintillation liquid. Radioactivity was measured using scintillation counter (Beckman Coulter, Calif.).

[4] = test system: Arabidopsis seedlings and plants; test: In planta chlorate sensitivity test; type: in vivo, Arabidopsis thaliana
Procedure: For chlorate sensitivity testing at the seedling stage, seeds were plated onto either control media or media containing 1-1.5 mM sodium chlorate. Plates were incubated under continuous light at 21° C. for 9 days. After the incubation, representative images were acquired using DSLR (PENTAX) camera.
(§1) For chlorate and picloram sensitivity testing at the adult stage, 7 day-old seedlings were transferred to soil (Fafard growing mix 2) and grown under continuous light for an additional 12 days. To test chlorate sensitivity, plants were then irrigated with 1 mM sodium chlorate solution on alternating days. Chlorate induced leaf bleaching were examined and imaged after 10-12 days. To test picloram sensitivity, plants were sprayed with 200 g/ha of picloram. Images were acquired 14-18 days after the treatment.

[5] = test system: Arabidopsis plants; test: Foliar picloram sensitivity test at the adult stage; type: in vivo, Arabidopsis thaliana
Procedure: as §1, with “To test picloram sensitivity, plants were sprayed with 200 g/ha of picloram.” left out

[6] = test system: PIC30pro::PIC30-GUS expression; test: PIC30-GUS expression, quantitative MUG assay; type: in vivo, Arabidopsis thaliana; settings: 5 day old PIC30pro::PIC30-GUS seedlings; 25 pM picloram; indicated time intervals
Procedure: To study the effect of picloram on PIC30 expression, 5 day old PIC30pro::PIC30-GUS seedlings were treated with 25 pM picloram in liquid media. They were incubated under continuous light at 21° C. without shaking, and samples were collected at different time intervals and frozen in liquid nitrogen. PIC30-GUS expression was determined through quantitative MUG assay.
Quantification of GUS expression was performed by fluorometric MUG (4-methylumbelliferyl-beta-D-glucuronide) assay following protocol described elsewhere (Parry et al. The Plant Cell 18, […], 2006) and the fluorescence was measured using a Fluorometer (Modulus, Turner Biosystems).

O=C(O)Cc1cccc2ccccc12 [1-NAA, 1-Naphthaleneacetic acid]
root growth sensitivity of PIC30-OX lines ([1]; 4 days incubation): wild-type sensitivity
primary root growth sensitivity of pic30 mutants ([1]; 4 days incubation): wild type sensitivity

O=C(O)COc1ccc(Cl)cc1Cl [2,4-D, 2,4-dichlorophenoxyacetic acid]
DR5::GFP expression in pic30-3 [2]: upregulated
primary root growth sensitivity of pic30 mutants ([1]; 4 days incubation): wild type sensitivity

O=C(O)Cc1c[nH]c2ccccc12 [IAA, indole-3-acetic acid]
IAA uptake, wild type versus pic30-3 ([3]; 3H-IAA, 15 mm apical root sections): no difference
DR5::GFP expression in pic30-3 [2]: upregulated
root growth sensitivity of PIC30-OX lines ([1]; 4 days incubation): wild-type sensitivity
primary root growth sensitivity of pic30 mutants ([1]; 4 days incubation): wild type sensitivity

Nc1cc(Cl)nc(C(=O)O)c1Cl [aminopyralid]
DR5::GFP expression in pic30-3 [2]: not
primary root growth sensitivity of pic30 mutants ([1]; 4 days incubation): insensitive

[O-][Cl+2]([O-])O [chlorate, sodium chlorate]
chlorate sensitivity ([4]; PIC30-OX lines, adult stage, irrigated with chlorate solution): wild-type sensitivity
chlorate sensitivity ([4]; all four PIC30-OX lines, seedling stage): hypersensitivity
chlorate induced cotyledon and leaf bleaching ([4]; pic30-1, seedling and adult stages): pronounced cotyledon and leaf bleaching
chlorate induced cotyledon and leaf bleaching ([4]; pic30-2, seedling and adult stages): pronounced cotyledon and leaf bleaching
chlorate induced necrosis and leaf bleaching ([4]; pic30-3, seedling and adult stages): insensitive
chlorate induced cotyledon and leaf bleaching ([4]; wild type, seedling (1-1.5 mM sodium chlorate, 9 days) and adult (1 mM irrigation) stages): pronounced cotyledon and leaf bleaching

Nc1c(Cl)c(Cl)nc(C(=O)O)c1Cl [picloram]
response to foliar treatment ([5]; PIC30-OX adult plants, 100 g/ha): hypersensitive
response to foliar treatment ([5]; pic30-1, pic30-2, pic30-3 adult plants, 200 g/ha sprayed): highly insensitive
picloram uptake in pic30-3 versus wild type root sections ([3]; pic30-3, 14C-picloram, 15 mm root sections of 9 day-old seedlings): significantly lower
picloram uptake relative to wild type roots ([3]; two PIC30-OX lines, 14C-picloram, 15 mm apical root sections): 26-30 times
DR5::GFP expression in pic30-3 [2]: not
inhibition at 0.1 µM ([1]; Arabidopsis thaliana, 96 h, PIC30-OX lines, 4 days incubation): 87 to 89%
inhibition at 10 pM ([1]; Arabidopsis thaliana, 96 h, four PIC30-OX lines (PIC30-GFP in pic30-3), 10 pM picloram, 4 days incubation): 97 to 98%
inhibition at 0.1 µM ([1]; Arabidopsis thaliana, 96 h, pic30-3, 4 days incubation): ~10%
inhibition at 0.1 µM ([1]; Arabidopsis thaliana, 96 h, wild type, 4 days incubation): ~10%
primary root growth sensitivity of pic30 mutants ([1]; 4 days incubation): highly insensitive
primary root growth inhibition ([1]; pic30-3 mutant, 4 days incubation): 46%
primary root growth sensitivity of pic30-1-OX lines ([1]; three independent homozygous pic30-1-OX lines in wild type background): insensitive
primary root growth inhibition ([1]; wild type, 4 days incubation): approximately 73%
effect on PIC30 gene expression [6]: did not have influence

— US11091769B2, “Development and use of modified plants and seeds that are resistant to herbicides and environmental stress” (Texas State University, priority 2017, dated 2021)
